Reference: patent US9718781B2, “Methods and compounds for treating proliferative disorders and viral infections” (University College Dublin, National University of Ireland, …, priority 2012, dated 2017)

Columns and labels:
TPβ = molecular target: T1, TPβ (Homo sapiens, UniProt P21731); assay: U46619-induced [Ca2+]i mobilization in HEK.TPβ cells; type: cell-based; conditions: 1 μM U46619; for remaining activity at 1 µM / Percentage of Control, TPβ, 1 μM / activity class in HEK.TPβ cells: antagonist 1 μM; for remaining activity at 1 µM / remaining activity at 10 µM / Percentage of Control, TPβ, 1 μM / Percentage of Control, TPβ, 10 μM: % of agonist-induced response in vehicle-treated cells; for remaining activity at 1 µM: read-out: Percentage of Control, TPβ, 1 μM; for remaining activity at 10 µM / Percentage of Control, TPβ, 10 μM: antagonist 10 μM; for remaining activity at 10 µM: read-out: Percentage of Control, TPβ, 10 μM
T1 construct: expressed in transfected cells
Description: (§1) An appropriate functional test for the evaluation of the agonistic and/or antagonistic potency of the compounds of the invention is the determination of calcium flux. Both TPα and TPβ are coupled to the G-protein Gαq. Therefore, stimulation of these receptors ultimately leads to a release of intracellular calcium ([Ca^2+]i) from intracellular stores. Consequently, the determination of [Ca^2+]i flux represents an appropriate functional test for the evaluation of the agonistic/antagonistic potency of compounds of the invention. Calcium can be measured using a molecule characterized by the covalent combination of a Ca^2+ chelating group and a fluorophore group. The Ca^2+ binding properties of these indicators are formed by the presence of a tetracarboxylic acid core as found for example in EGTA (Ethylene Glycol bis(2-aminoethyl)Tetraacetic Acid). Binding of Ca^2+ produces a wavelength shift in either the excitation or emission fluorescence spectra or a change in the emission intensity. Whereas the Ca^2+ binding to EGTA is pH dependent, recent dyes are designed from an EGTA derivative, BAPTA (1,2-Bis(2-Aminophenoxy)ethane-N,N,N′,N′-Tetraacetic Acid). Loading of these dyes inside cells commonly uses esterified forms (acetoxymethyl ester), which are able to cross the cell membranes and are subsequently hydrolyzed by esterases inside the cell.
(§2) Estimation of [Ca^2+]i flux is calculated from the fluorescence signal (F). For calibration, the maximal fluorescence (Fmax, Ca^2+-saturated form of the dye) as well as minimal fluorescence (Fmin, Ca^2+-free form of the dye) must be determined. These parameters are determined usually in situ after the experiment, for example by subsequent addition to the mixture of a cell-disrupting agent that releases all Ca^2+ such as Triton X100 and a potent Ca^2+-chelating agent such as EGTA. After subtraction of background fluorescence, [Ca^2+]; flux can be calculated for non-ratiometric indicators.
(§3) Intracellular [Ca^2+]; fluxes were measured using a fluorescence plate reader following a modified protocol of Kassack et al., ‘Quantitative comparison of functional screening by measuring intracellular Ca^2+ with radioligand binding at recombinant human dopamine receptors’, AAPS Pharmsci, 2002, 4(4); 102-111, in cell lines (e.g. HEK293 or other cell type) endogenously-expressing or over-expressing either TPα, TPβ or any other receptor or protein to be screened.
(§4) By way of example, HEK 293 cells which have been grown for 3-4 days in normal growth media (minimum essential media containing 10% FBS and 2 mmol/1 L-glutamine), under normal growth conditions (37° C., in humidified 5% CO2 atmosphere) are washed and harvested in KREBs-HEPES buffer (118 mM NaCl, 4.7 mM KCl, 1.2 mM MgSO4, 1.2 mM KH2PO4, 4.2 mM NaHCO3, 11.7 mM D-glucose, 1.3 mM CaCl2, 10 mM HEPES, pH 7.4). Cells are then incubated with 3 μM Fluo-4 in KREBs-HEPES buffer containing 1% Pluoronic F-127, for 1 hr at 25° C. with agitation. Then, cells are washed in KREBs-HEPES buffer containing 0.5% BSA and re-suspended at a final concentration of 3×10^5 cells/ml. Approx. 5.4×10^4 cells per well are plated in a 96-well plate and pre-incubated with test compounds for 10 m prior to measuring the fluorescence intensity at 520 nm for 25 seconds at 1 s intervals to monitor baseline using the Fluoroskan Ascent. Agonist (e.g., 1 μM U46619) is injected into separate wells by the automatic pipettor and fluorescence intensity is monitored at 520 nm for 75 seconds at 1 s intervals. Thereafter, Triton X100 and EGTA are added sequentially where Fmax refers to maximal fluorescence intensity measured after permeabilization of the cells with 2% Triton X100 and Fmin refers to fluorescence intensity measured after addition of 1 mM EGTA.
(§5) The dye Fluo-4 has its excitation peak at 480 nm, in the visible spectra, which spare cells to be damaged by UV (340-360 nm) stimulation and reduces auto-fluorescence of cells. […]

TPα = molecular target: T2, TPα (Homo sapiens, UniProt P21731); assay: U46619-induced [Ca2+]i mobilization in HEK.TPα cells; type: cell-based; conditions: for remaining activity at 1 µM / Percentage of Control, TPα, 1 μM: antagonist 1 μM; for remaining activity at 1 µM / remaining activity at 10 µM / Percentage of Control, TPα, 1 μM / Percentage of Control, TPα, 10 μM: % of agonist-induced response in vehicle-treated cells; for remaining activity at 1 µM: read-out: Percentage of Control, TPα, 1 μM; for remaining activity at 10 µM / Percentage of Control, TPα, 10 μM: antagonist 10 μM; for remaining activity at 10 µM: read-out: Percentage of Control, TPα, 10 μM
T2 construct: expressed in transfected cells
T2 sequence (P21731 1-343): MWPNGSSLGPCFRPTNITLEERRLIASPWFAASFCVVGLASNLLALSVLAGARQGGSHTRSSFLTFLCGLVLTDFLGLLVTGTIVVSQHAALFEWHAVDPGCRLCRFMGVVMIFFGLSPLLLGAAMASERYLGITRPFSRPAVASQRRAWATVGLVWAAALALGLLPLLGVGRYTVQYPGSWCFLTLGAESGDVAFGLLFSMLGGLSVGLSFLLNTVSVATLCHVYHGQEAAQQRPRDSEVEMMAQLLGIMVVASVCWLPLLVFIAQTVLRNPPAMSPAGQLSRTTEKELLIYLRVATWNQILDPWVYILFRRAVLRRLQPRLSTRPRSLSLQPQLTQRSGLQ
Description: as §1, §2, §3, §4, §5

T1 sequence (P21731 1-407 isoform P21731-2): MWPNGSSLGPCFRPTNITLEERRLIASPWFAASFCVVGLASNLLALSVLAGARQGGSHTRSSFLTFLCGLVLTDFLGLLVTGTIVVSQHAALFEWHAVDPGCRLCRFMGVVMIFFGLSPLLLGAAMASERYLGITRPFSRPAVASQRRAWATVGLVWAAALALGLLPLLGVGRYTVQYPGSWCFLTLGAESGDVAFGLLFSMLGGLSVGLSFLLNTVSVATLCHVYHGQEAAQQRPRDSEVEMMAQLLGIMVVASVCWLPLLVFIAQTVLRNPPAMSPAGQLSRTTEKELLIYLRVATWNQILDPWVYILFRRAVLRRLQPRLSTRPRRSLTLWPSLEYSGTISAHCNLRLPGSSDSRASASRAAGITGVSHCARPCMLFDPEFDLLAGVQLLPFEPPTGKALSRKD

remaining activity at 1 µM (TPβ)	remaining activity at 10 µM (TPβ)	remaining activity at 1 µM (TPα; 1 μM U46619)	remaining activity at 10 µM (TPα; 1 μM U46619)	SMILES	other results
–	–	–	–	CC(C)(C)NC(=O)NS(=O)(=O)c1cc([N+](=O)[O-])ccc1Oc1cccc(I)c1 [XXXVIII, 2-(3-Iodophenoxy)-5-nitrobenzene(t-butyl)sulfonyl urea]	IC50 (TPβ; HEK.TPβ cells, Table 2, read-out: IC50 data for U46619-mediated [Ca2+]i mobilization, TPβ): 1990 nM; IC50 (TPα; HEK.TPα cells, 1 μM U46619, Table 2, read-out: IC50 data for U46619-mediated [Ca2+]i mobilization, TPα): 4010 nM; TPα:TPβ Selectivity Ratio (TPα; IC50 TPα/IC50 TPβ): 2
61.6 ± 1.93%	14.8 ± 2.03%	80 ± 7.15%	65.5 ± 6.32%	COc1ccc(-c2cccc(Oc3ccc(C(=O)Nc4ccccc4)cc3S(=O)(=O)NC(=O)NC(C)(C)C)c2)cc1 [NTP25]	–
–	–	–	–	COc1ccc(-c2cccc(Oc3cc(C)c(C#N)cc3S(=O)(=O)NC(=O)NC(C)(C)C)c2)cc1 [NTP32, N-(tert-butylcarbamoyl)-5-cyano-2-((4′-methoxy-[1,1′-biphenyl]-3-yl)oxy)-4-methyl benzenesulfonamide]	Percentage of Control, TPβ, 1 μM (TPβ): 93.6 ± 4.06%; Percentage of Control, TPβ, 10 μM (TPβ): 46.2 ± 4.83%; Percentage of Control, TPα, 1 μM (TPα; 1 μM U46619): 80.3 ± 4.21%; Percentage of Control, TPα, 10 μM (TPα; 1 μM U46619): 69.3 ± 2.07%
77.7 ± 3.24%	64.5 ± 4.65%	97.6 ± 8.6%	99.4 ± 16%	COc1ccc(-c2cccc(Oc3ccc(-c4c(C)noc4C)cc3S(=O)(=O)NC(=O)NC(C)(C)C)c2)cc1 [NTP19]	–
102 ± 3.59%	90.1 ± 2.78%	85 ± 2.71%	54.9 ± 3.32%	COc1ccc(-c2cccc(Oc3ccc(C(=O)N(C)C)cc3S(=O)(=O)NC(=O)NC(C)(C)C)c2)cc1 [NTP2, 3-(N-(tert-butylcarbamoyl)sulfamoyl)-4-((4′-methoxy-[1,1′-biphenyl]-3-yl)oxy)-N,N-dimethylbenzamide]	–
74.8 ± 5.49%	27.7 ± 4.21%	77.3 ± 8.72%	52.7 ± 2.89%	COc1ccc(-c2cccc(Oc3ccncc3S(=O)(=O)NC(=O)NC(C)(C)C)c2)cc1 [NTP31, N-(tert-butylcarbamoyl)-4-((4′-methoxy-[1,1′-biphenyl]-3-yl)oxy)pyridine-3-sulfonamide]	–
83 ± 7.62%	34 ± 3.88%	117 ± 10.2%	96.3 ± 1.24%	COc1ccc(-c2cccc(Oc3ccc(C(=O)NCC4CC4)cc3S(=O)(=O)NC(=O)NC(C)(C)C)c2)cc1 [NTP16]	–
74 ± 3.66%	36.2 ± 0.52%	93.8 ± 13.9%	95.2 ± 9.57%	COc1ccc(-c2cccc(Oc3ccc(C(N)=O)cc3S(=O)(=O)NC(=O)NC(C)(C)C)c2)cc1 [NTP13]	–
46.3 ± 7.33%	12.2 ± 1.03%	85.9 ± 9.13%	70.4 ± 2.47%	COc1ccc(-c2cccc(Oc3ccc(C(C)=O)cc3S(=O)(=O)NC(=O)NC(C)(C)C)c2)cc1 [NTP9, 5-acetyl-N-(tert-butylcarbamoyl)-2-((4′-methoxy-[1,1′-biphenyl]-3-yl)oxy)benzenesulfonamide]	–
–	–	–	–	COc1ccc(-c2cccc(Oc3ccc(C#N)cc3S(=O)(=O)NC(=O)NC(C)(C)C)c2)cc1 [NTP33, N-(tert-butylcarbamoyl)-5-cyano-2-((4′-methoxy-[1,1′-biphenyl]-3-yl)oxy)benzene-sulfonamide]	Percentage of Control, TPβ, 1 μM (TPβ): 75.6 ± 6.46%; Percentage of Control, TPβ, 10 μM (TPβ): 34.5 ± 1.56%; Percentage of Control, TPα, 1 μM (TPα; 1 μM U46619): 103 ± 6.25%; Percentage of Control, TPα, 10 μM (TPα; 1 μM U46619): 82.4 ± 5.86%
49 ± 4.41%	12.2 ± 1.93%	61.5 ± 7.7%	32.5 ± 3.95%	COc1ccc(-c2cccc(Oc3ccc(Br)cc3S(=O)(=O)NC(=O)NC(C)(C)C)c2)cc1 [NTP7, 5-bromo-N-(tert-butylcarbamoyl)-2-((4′-methoxy-[1,1′-biphenyl]-3-yl)oxy)benzenesulfonamide]	activity class in HEK.TPβ cells (TPβ): ACTIVE
42.5 ± 2.32%	18.5 ± 3.53%	72.4 ± 5.97%	55.7 ± 5.84%	COc1ccc(-c2cccc(Oc3ccc(-c4ccoc4)cc3S(=O)(=O)NC(=O)NC(C)(C)C)c2)cc1 [NTP20]	–
86.4 ± 7.06%	59.4 ± 7.67%	83.5 ± 9.26%	89.1 ± 9.1%	COCCNC(=O)c1ccc(Oc2cccc(-c3ccc(OC)cc3)c2)c(S(=O)(=O)NC(=O)NC(C)(C)C)c1 [NTP14]	–
51 ± 1.62%	32.2 ± 2.89%	78.3 ± 8.28%	66.4 ± 4.95%	COc1ccc(-c2cccc(Oc3ccc(-c4ccco4)cc3S(=O)(=O)NC(=O)NC(C)(C)C)c2)cc1 [NTP21]	–
84.2 ± 7.51%	34.4 ± 2.85%	99.7 ± 2.13%	77.9 ± 2.69%	COc1ccc(-c2cccc(Oc3ccc(C(=O)NC4COC4)cc3S(=O)(=O)NC(=O)NC(C)(C)C)c2)cc1 [NTP12]	–

SMILES	remaining activity at 1 µM (TPβ)	remaining activity at 10 µM (TPβ)	remaining activity at 1 µM (TPα; 1 μM U46619)	remaining activity at 10 µM (TPα; 1 μM U46619)	other results
COc1ccc(-c2cccc(Oc3ccc(S(C)(=O)=O)cc3S(=O)(=O)NC(=O)NC(C)(C)C)c2)cc1 [NTP27, N-(tert-butylcarbamoyl)-2-((4′-methoxy-[1,1′-biphenyl]-3-yl)oxy)-5-(methylsulfonyl)benzenesulfonamide]	36.4 ± 3.8%	16.3 ± 2.39%	81.1 ± 10.2%	68.4 ± 4.56%	activity class in HEK.TPβ cells (TPβ): ACTIVE
